Source: PubChem BioAssay AID624167 (Sanford-Burnham Center for Chemical Genomics, 2012)
Calls of active or inactive are those of the source.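 The calls were made as follows: active = mean IC50 for reducing PEG3 promoter reporter signal at or below a set limit, with IC50 above the limit in both counter screens; inactive = the rest, including counter screen hits.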

Columns and labels:
[1] = Peg3 promoter luciferase inhibitors, potency, dose response, cell-based, HeLa, CREF/GAPDH counter-screen panel (AID 624167); conditions: CREF/GAPDH counter-screens; GAPDH; mean of runs
GAPDH = test: as above; conditions: CREF/GAPDH counter-screens
PEG-3 [2] = target: PEG-3 (UniProt Q6IN02); test: as above; conditions: HeLa PEG-Prom luciferase reporter, overnight, CREF/GAPDH counter-screens, mean of runs
Chain of PEG-3 (UniProt Q6IN02) (Q6IN02 whole entry, looked up): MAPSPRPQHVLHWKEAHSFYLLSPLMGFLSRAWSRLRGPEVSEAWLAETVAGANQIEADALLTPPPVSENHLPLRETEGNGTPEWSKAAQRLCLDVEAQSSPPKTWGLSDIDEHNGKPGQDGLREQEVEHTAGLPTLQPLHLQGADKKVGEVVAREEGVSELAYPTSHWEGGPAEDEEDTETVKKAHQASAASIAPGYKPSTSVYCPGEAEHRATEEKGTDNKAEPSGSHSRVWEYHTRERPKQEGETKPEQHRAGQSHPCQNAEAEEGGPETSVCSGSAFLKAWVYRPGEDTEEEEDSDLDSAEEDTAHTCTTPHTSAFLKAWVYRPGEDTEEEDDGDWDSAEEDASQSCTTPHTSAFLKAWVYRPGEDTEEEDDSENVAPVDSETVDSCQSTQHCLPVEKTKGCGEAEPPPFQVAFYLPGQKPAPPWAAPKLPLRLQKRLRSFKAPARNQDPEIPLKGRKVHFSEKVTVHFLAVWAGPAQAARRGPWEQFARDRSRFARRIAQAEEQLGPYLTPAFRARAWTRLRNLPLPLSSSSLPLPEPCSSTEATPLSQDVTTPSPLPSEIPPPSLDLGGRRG

PEG-3 [3] = test: as above; conditions: HeLa PEG-Prom luciferase reporter, overnight, CREF/GAPDH counter-screens
Rat fibroblasts (CREF) = test: as above; conditions: CREF/GAPDH counter-screens
[4] = run 1, dose range 1, individual replicate IC50 per panel
[5] = run 2, dose range 1, individual replicate IC50 per panel

IC50 [1] | IC50 (PEG-3 [2]) | SMILES | IC50 (GAPDH; [4]) [µM] | IC50 (GAPDH; [5]) [µM] | IC50 (PEG-3 [3]; [4]) [µM] | IC50 (PEG-3 [3]; [5]) [µM] | IC50 (Rat fibroblasts (CREF); mean of runs) | IC50 (Rat fibroblasts (CREF); [4]) [µM] | IC50 (Rat fibroblasts (CREF); [5]) [µM]
7.04 µM | 2.27 µM | COc1ccc2c(c1)c(=Cc1ccc(N(C)C)cc1)c1cc(-c3ccccc3)[n+](C)n12 | 6.61 | 7.46 | 3.17 | 1.37 | 26.9 µM | 24.8 | 29.1
28.7 µM | 2.53 µM | Cc1ccc(C)c(S(=O)(=O)N2CCN(c3ncnc4sccc34)CC2)c1 | 9.4 | 48 | 2.58 | 2.47 | 58.7 µM (inactive) | > 100 | 17.4
18.8 µM | 7.28 µM | CCOC(=O)c1c(SCCN2CCCCC2)n(-c2ccccc2)c(=S)n(-c2ccccc2)c1=O | 18.8 | 18.8 | 10.1 | 4.4 | 13.6 µM | 12.9 | 14.4
4.7 µM | 10.2 µM | CC(=O)c1sc2c(c1OC(=O)c1ccc(Cl)cc1Cl)c(=O)n(-c1ccccc1)c(=S)n2-c1ccccc1 | 2.85 | 6.56 | 11.2 | 9.26 | > 100 µM (inactive) | > 100 | > 100
> 100 µM (inactive) | 1.75 µM | CCCC(=O)NC(c1ccc(N(C)C)cc1)c1ccc2cccnc2c1O (stereo not given) | > 100 | > 100 | 2.74 | 0.758 | 72.3 µM (inactive) | > 100 | 44.7
18.6 µM | 8.04 µM | Cc1ccc(C(C[N+](=O)[O-])Sc2ccc(N)cc2)cc1 (stereo not given) | 21.1 | 16.1 | 9.59 | 6.49 | 62.8 µM (inactive) | 25.6 | > 100
1.86 µM | inactive | Clc1ccccc1/C=C/c1nc(-c2ccccn2)no1 | 3.51 | < 0.2 | 3.68 | > 100 | 28 µM | 25.7 | 30.3
> 100 µM (inactive) | inactive | COc1ccccc1Nc1nc(-c2sc(NC(=O)c3ccco3)nc2C)cs1 | > 100 | > 100 | 7.41 | > 100 | > 100 µM (inactive) | > 100 | > 100
23 µM | 8.14 µM | O=C(N/N=C/c1ccc(Cl)c([N+](=O)[O-])c1)c1cc(-c2ccc3c4c(cccc24)CC3)n[nH]1 | 22.8 | 23.2 | 11.2 | 5.1 | > 100 µM (inactive) | > 100 | > 100
1.44 µM | 4.49 µM | CC(C)(C)c1ccc(Oc2ccc(N)cc2)cc1 | 0.457 | 2.43 | 4.88 | 4.1 | 74.7 µM (inactive) | 74.7 | > 100
inactive | 13.8 µM | COC1CC(C)C(OC)c2cc(O)cc(c2O)NC(=O)C(C)=CC=CC(C)C(OC(N)=O)C(C)=CC(C)C1OC (stereo not given) | 45.1 | 45.7 | 22.2 | 5.41 | > 100 µM (inactive) | > 100 | > 100
inactive | 9.94 µM | CCC(c1ccc(O)c(O)c1)C(CC)c1ccc(O)c(O)c1 (stereo not given) | 35.6 | 33.7 | 14.2 | 5.63 | 19.9 µM | 23 | 16.7
> 100 µM (inactive) | 2.07 µM | O=c1cnnc(N/N=C/c2ccccn2)[nH]1 | > 100 | > 100 | 1.69 | 2.45 | 67.1 µM (inactive) | > 100 | 34.1
24 µM | 1.4 µM | C=CCn1c(C)cc(C(=O)COc2ccc(C)nc2[N+](=O)[O-])c1C | 8.8 | 39.1 | 1.55 | 1.26 | > 100 µM (inactive) | > 100 | > 100

SMILES | IC50 [1] | IC50 (PEG-3 [2]) | IC50 (GAPDH; [4]) [µM] | IC50 (GAPDH; [5]) [µM] | IC50 (PEG-3 [3]; [4]) [µM] | IC50 (PEG-3 [3]; [5]) [µM] | IC50 (Rat fibroblasts (CREF); mean of runs) | IC50 (Rat fibroblasts (CREF); [4]) [µM] | IC50 (Rat fibroblasts (CREF); [5]) [µM]
COC(COC(N)=O)C1=C(N2CC2)C(=O)C(C)=C(N2CC2)C1=O (stereo not given) | 15 µM | 0.938 µM | 10.2 | 19.8 | 1.29 | 0.583 | 4.51 µM | 8.05 | 0.958
